Assay results published in article PMC9416494, “Cinnamaldehyde and Curcumin Prime Akt2 for Insulin-Stimulated Activation” (Nutrients, 2022).
Like-named read-outs stand apart in the source and are kept apart here.

Columns and labels:
Akt1 = test: cIEF immunoassay of Akt1 in primary human subcutaneous preadipocytes; format: cell-based; conditions: for effect on Akt1 cIEF electropherogram: 30 min; for effect on insulin-stimulated phosphorylation of Akt1: with insulin, cIEF of p-Akt1 (S473) and standard Western
Protocol: (§1) Primary human subcutaneous preadipocytes were obtained from Zen-Bio (Cat. No. SP-F-1, Lot #L031219A, Durham, NC, USA) and maintained at 37 °C and 5% CO2 in growth medium comprising Minimum Essential Medium α (cat. no. 12571063, Thermo Fisher Scientific, Waltham, MA, USA) supplemented with 10% fetal bovine serum, 100 units/mL penicillin, and 100 µg/mL streptomycin. […] The donor was undergoing elective surgery and signed an Institutional Review Board validated donor consent form that specifically lists both the intended uses for non-clinical research and confirms the procedures for processing the samples are Standard Operating Procedure managed Good Laboratory Practices protocols in compliance with ethical regulations. All samples were collected and processed in the United States.
(§2) Existing growth media of primary human subcutaneous preadipocytes were replaced with new growth media premixed with treatment compounds and incubated at 37 °C and 5% CO2 for 30 min prior to the collection of total cell extracts. The final concentrations of treatment compounds were as follows: insulin (100 nM, Humulin R, Eli Lilly, Indianapolis, IN, USA), cinnamaldehyde (40 µM, cat. no. W228613, Sigma Aldrich, St. Louis, MO, USA), curcumin (20 µM, cat. no. C7727, Sigma Aldrich, St. Louis, MO, USA), okadaic acid (5 nM, cat. no. ab120375, Cambridge, MA, USA), and PTP1Bi (4 µM, cat. no. 15782, Cayman Chem, Ann Arbor, MI, USA). The concentrations of treatment compounds were selected based on their ability to induce maximal effects on the PTM profile of Akt2, which were experimentally determined.
(§3) Approximately one million cells were incubated on ice for 10 min with 60 µL of lysis buffer (cat. no. 040-764, ProteinSimple, Santa Clara, CA, USA), sonicated 4 times for 5 s each, mixed by rotation for 2 h at 4 °C, and centrifuged at 12,000 rpm in an Eppendorf 5430R microfuge for 20 min at 4 °C. The supernatant was collected as the cell lysate. The total protein concentration in the cell lysate was determined with a Bradford protein assay and adjusted to a final concentration of 0.3 µg/µL with separation gradients (cat. no. Premix G2, pH 5–8, ProteinSimple, Santa Clara, CA, USA) for charge-based cIEF immunoassays.
(§4) Cell lysates in separation gradients were loaded into 384-well assay plates (cat. no. 040-663, ProteinSimple, Santa Clara, CA, USA), which were preloaded with primary and secondary antibodies and chemiluminescent substrates. Charge-based protein separation and detection in individual capillaries were performed using the default protocols of the NanoPro 1000 system (ProteinSimple, Santa Clara, CA, USA). HSP70 was used as the loading control. All cIEF immunoassays were performed in triplicate for each protein, and triplicate experiments were performed for each treatment condition, producing nine repeated measurements per protein analyte.
(§5) Protein abundance was quantified using the Compass software from ProteinSimple (Santa Clara, CA, USA) and normalized with that of HSP70 for cIEF immunoassays or β-actin for capillary Western assays. HSP70 and β-actin served as loading controls.

Akt3 = test: cIEF immunoassay of Akt3 in primary human subcutaneous preadipocytes; format: cell-based; conditions: for effect on Akt3 cIEF electropherogram: 30 min; for effect on insulin-stimulated phosphorylation of Akt3: with insulin
Protocol: as §1, §2, §3, §4, §5

PP2A = target: T1, PP2A (Homo sapiens, UniProt P67775); test: Ser/Thr phosphatase assay (malachite green), recombinant PP2A; format: biochemical
T1 construct: purchased Cayman Chem 10011237
Protocol: (§6) Ser/Thr phosphatase assay kit (cat. no. 17-127, Millipore, Temecula, CA, USA) was used to detect PP2A activity by dephosphorylation of the phosphopeptide R-K-pT-I-R-R using malachite green detection. Likewise, a protein tyrosine phosphatase assay kit (cat. no. 17-125, Millipore, Burlington, MA, USA) was used to detect PTP1B activity by dephosphorylation of the phosphopeptide R-R-L-I-E-D-A-E-pY-A-A-R-G using malachite green detection. Experimental procedures were performed according to the manufacturer’s protocols. Recombinant PP2A (cat. no. 10011237, Cayman Chem, Ann Arbor, MI, USA) and PTP1B (cat. no. 10010896, Cayman Chem, Ann Arbor, MI, USA) were used. Dephosphorylation reactions were performed at room temperature for 30 min in the presence of serially diluted okadaic acid, PTP1Bi, cinnamaldehyde, or curcumin. The reactions were terminated by the addition of […] malachite green solution and allowed color development to proceed for 15 min at room temperature. Phosphatase activities were measured using absorbance at 650 nm in a microtiter plater reader (Synergy 2, BioTek, Winooski, VT, USA).

Akt2 = test: cIEF immunoassay of Akt2 and p-Akt2 (S474) in primary human subcutaneous preadipocytes; format: cell-based; conditions: for change of Akt2 cIEF electropherogram versus untreated control / change of Akt2 cIEF electropherogram versus insulin alone / increase of p-Akt2 (S474) compared to insulin treatment alone / p-Akt2 (S474) induction: 30 min; for change of Akt2 cIEF electropherogram versus untreated control: insulin 100 nM; for change of Akt2 cIEF electropherogram versus untreated control / increase of p-Akt2 (S474) compared to insulin treatment alone / p-Akt2 (S474) induction: cinnamaldehyde 40 µM, curcumin 20 µM; for change of Akt2 cIEF electropherogram versus untreated control / p-Akt2 (S474) induction: okadaic acid 5 nM, PTP1Bi 4 µM; for change of Akt2 cIEF electropherogram versus insulin alone / increase of p-Akt2 (S474) compared to insulin treatment alone: together with insulin 100 nM; for p-Akt2 (S474) induction: treatment without added insulin (insulin itself 100 nM)
Protocol: as §1, §2, §3, §4, §5

PTP1B = target: T2, PTP1B (Homo sapiens, UniProt P18031); test: Protein tyrosine phosphatase assay (malachite green), recombinant PTP1B; format: biochemical; conditions: 30 min, room temperature, read-out: IC50, PTP1B inhibition
T2 construct: purchased Cayman Chem 10010896
T2 sequence (P18031 1-321 limits assumed): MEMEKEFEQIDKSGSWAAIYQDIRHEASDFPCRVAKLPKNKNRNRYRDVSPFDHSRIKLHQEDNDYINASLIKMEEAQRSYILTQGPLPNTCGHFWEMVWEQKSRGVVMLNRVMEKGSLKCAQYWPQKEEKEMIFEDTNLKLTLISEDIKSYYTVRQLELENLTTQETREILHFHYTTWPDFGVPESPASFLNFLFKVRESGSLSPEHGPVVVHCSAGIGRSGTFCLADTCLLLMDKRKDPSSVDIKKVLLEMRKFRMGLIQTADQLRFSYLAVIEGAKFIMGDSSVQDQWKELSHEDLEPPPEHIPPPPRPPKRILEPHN
Protocol: as §6

ERK1/2 = test: cIEF immunoassay of ERK1/2 phosphorylation; format: cell-based, human; conditions: following treatment
Protocol: as §2
Cell lysates in separation gradients were loaded into 384-well assay plates (cat. no. 040-663, ProteinSimple, Santa Clara, CA, USA), which were preloaded with primary and secondary antibodies and chemiluminescent substrates. Charge-based protein separation and detection in individual capillaries were performed using the default protocols of the NanoPro 1000 system (ProteinSimple, Santa Clara, CA, USA). HSP70 was used as the loading control. […]

pan-Akt [1] = test: cIEF immunoassay of pan-Akt phosphoisoforms in primary human subcutaneous preadipocytes; format: cell-based; conditions: 30 min, versus untreated control
Protocol: as §1, §2, §3, §4, §5

pan-Akt [2] = test: Capillary Western immunoassay of p-Akt in primary human subcutaneous preadipocytes; format: cell-based; conditions: insulin 30 min
Protocol: as §1, §2
The total protein concentration in the cell lysate was determined with a Bradford protein assay and adjusted to a final concentration of 0.4 µg/µL with denaturing buffers (cat. no. PS-ST01EZ or PS-ST03EZ, ProteinSimple, Santa Clara, CA, USA) for size-based Western immunoassays. […]
Protein abundance was quantified using the Compass software from ProteinSimple (Santa Clara, CA, USA) and normalized with that of HSP70 for cIEF immunoassays or β-actin for capillary Western assays. […]

[3] = recombinant PP2A, 30 min, room temperature, read-out: IC50, PP2A inhibition

T1 sequence (P67775 1-308 limits assumed): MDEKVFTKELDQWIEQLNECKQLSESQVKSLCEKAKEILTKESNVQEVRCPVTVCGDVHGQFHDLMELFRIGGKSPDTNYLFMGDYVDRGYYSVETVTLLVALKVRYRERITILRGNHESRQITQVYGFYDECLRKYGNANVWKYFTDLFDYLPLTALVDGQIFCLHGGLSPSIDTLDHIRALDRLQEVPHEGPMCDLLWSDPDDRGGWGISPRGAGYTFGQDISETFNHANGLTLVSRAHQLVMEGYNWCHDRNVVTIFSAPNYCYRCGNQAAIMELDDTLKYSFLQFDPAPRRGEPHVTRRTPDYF

Molecule | effect on Akt1 cIEF electropherogram (Akt1) | effect on insulin-stimulated phosphorylation of Akt1 (Akt1) | effect on Akt3 cIEF electropherogram (Akt3) | effect on insulin-stimulated phosphorylation of Akt3 (Akt3) | IC50 (PP2A; [3]) | change of Akt2 cIEF electropherogram versus untreated control (Akt2) | change of Akt2 cIEF electropherogram versus insulin alone (Akt2) | increase of p-Akt2 (S474) compared to insulin treatment alone (Akt2) | p-Akt2 (S474) induction (Akt2) | IC50 (PTP1B) | ERK1/2 phosphorylation (ERK1/2) | abundance of p-Akt (S124) at pI 5.74 (pan-Akt [1]) | abundance of p-Akt (S246) at pI 5.74 (pan-Akt [1]) | abundance of p-Akt (Y475) at pI 5.74 (pan-Akt [1]) | effect on p-Akt (T308) (pan-Akt [1]) | p-Akt (T450) phosphorylation (pan-Akt [1]) | other results
O=C/C=C/c1ccccc1 [cinnamaldehyde] | neither cinnamaldehyde or curcumin had any observable effect | promote insulin-stimulated phosphorylation of Akt1 | neither cinnamaldehyde or curcumin had any observable effect | no observable effect | ~40 µM | new peak at pI 5.41 | induced the appearance of a new Akt2 isoform at pI 5.15 | approximately 3.5 fold | Neither untreated control preadipocytes or preadipocytes treated with cinnamaldehyde or curcumin had a detectable level | ~4 µM | increased ERK1/2 phosphorylation | increased the abundance | increased the abundance | increased the abundance | no observable effect | increased phosphorylation at the T450 residue | –
C=C1[C@@H](O)[C@@H]2O[C@]3(CC[C@H](/C=C/[C@@H](C)[C@@H]4CC(C)=C[C@@]5(O[C@H](C[C@@](C)(O)C(=O)O)CC[C@H]5O)O4)O3)CC[C@H]2O[C@@H]1[C@@H](O)C[C@H](C)[C@H]1O[C@@]2(CCCCO2)CC[C@H]1C [okadaic acid, reference compound] | – | – | – | – | – | induced the appearance of a new Akt2 isoform at pI 5.20 | – | – | Neither okadaic acid nor PTP1Bi treatment individually was capable of inducing | – | – | – | – | – | – | – | IC50 (PP2A): ~0.0005 µM
insulin [reference compound] | no observable effect | – | induced the appearance of new Akt2 and Akt3 isoforms at low pI values | – | – | pI 5.20 and 5.30 | – | – | induced the appearance of p-Akt2 (S474) | – | – | – | – | – | – | – | abundance of p-Akt (S473) (pan-Akt [2]): increased the abundance; abundance of p-Akt (T308) (pan-Akt [2]): increased the abundance; abundance of p-Akt (T450) (pan-Akt [2]): increased the abundance
COc1cc(/C=C/C(=O)CC(=O)/C=C/c2ccc(O)c(OC)c2)ccc1O [curcumin] | neither cinnamaldehyde or curcumin had any observable effect | promote insulin-stimulated phosphorylation of Akt1 | neither cinnamaldehyde or curcumin had any observable effect | no observable effect | ~20 µM | new peak at pI 5.41 | induced the appearance of a new Akt2 isoform at pI 5.15 | approximately 3.5 fold | Neither untreated control preadipocytes or preadipocytes treated with cinnamaldehyde or curcumin had a detectable level | ~25 µM | increased ERK1/2 phosphorylation | increased the abundance | increased the abundance | increased the abundance | no observable effect | increased phosphorylation at the T450 residue | –
O=c1cc(N2CCOCC2)oc2c(-c3ccccc3)cccc12 [LY294002, reference compound] | – | – | – | – | – | – | – | – | – | – | – | – | – | – | – | – | effect on cinnamaldehyde or curcumin-induced phosphorylation of Akt2 (Akt2; PI3K inhibitor with cinnamaldehyde or curcumin): unable to inhibit; effect on insulin-stimulated phosphorylation of Akt2 (Akt2; PI3K inhibitor with insulin): abrogates
